In general, IC50 refers to the point on the concentration scale where inhibition reaches its midpoint. As a reminder, the Ki is a dissociation constant, usually derived from enzyme kinetics or from competition with a known ligand.

From ChEMBL document CHEMBL1909046, “DrugMatrix in vitro pharmacology data” come the findings set out here.

A short description of test [1]: DRUGMATRIX: Atrial Natriuretic Factor (ANF) radioligand binding (ligand: [125I] ANF (rat)). The test is classed as cell membranes, Cavia porcellus, Dunkin-Hartley, Adrenal gland, Membrane. The conditions noted are these: Not Active = under 50% inhibition at 10 µM.
Test [2] deals with C-C chemokine receptor type 2 (Homo sapiens, UniProt P41597). The test is classed as cell membranes, CHO-K1, Membrane. The conditions noted are these: cho-k1.
Test [3] is described as follows: DRUGMATRIX: Glutamate, NMDA, Phencyclidine radioligand binding (ligand: [3H] TCP). The test is classed as cell membranes, Rattus norvegicus, Wistar, Cerebral cortex, Membrane. The conditions noted are these: Not Active = under 50% inhibition at 10 µM.
The target in another test is Glycine receptor (Rattus norvegicus, UniProt P22771+P24524+P07727+P20781). The test is classed as cell membranes, Wistar, Spinal cord, Membrane. Further: in other assays of this panel Not Active means under 50% inhibition at 10 µM.
In test [4] the target is Delta-type opioid receptor (Homo sapiens, UniProt P41143). The test is classed as cell membranes, HEK293, Membrane. Further: in other assays of this panel Not Active means under 50% inhibition at 10 µM.
Test [5] deals with Kappa-type opioid receptor (Homo sapiens, UniProt P41145). The test can be described thus: DRUGMATRIX: Opiate kappa (OP2, KOP) radioligand binding (ligand: [3H] Diprenorphine). The test is classed as cell membranes, HEK293, Membrane. The note with it: hek293; Not Active = under 50% inhibition at 10 µM.
The nature of test [6]: DRUGMATRIX: Platelet-Derived Growth Factor (PDGF) radioligand binding (ligand: [125I] PDGF). The test is classed as cell-based. The note with it: nih3t3; Not Active = under 50% inhibition at 10 µM.
The target of test [7] is Protein kinase C alpha type (Homo sapiens, UniProt P17252). The test is classed as cell-based. The conditions noted are these: sf9.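 Further: inhibition of PKCalpha kinase activity measured in an enzyme assay with histone as the phosphorylation substrate; in other assays of this panel Not Active means under 50% inhibition at 10 µM.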
For test [8], the target named is Mitogen-activated protein kinase 1 (Homo sapiens, UniProt P28482). The test can be described thus: DRUGMATRIX: Protein Serine/Threonine Kinase, ERK2 enzyme inhibition (substrate: Myelin Basic Protein). The note with it: Not Active = under 50% inhibition at 10 µM. Further details: species or system Escherichia coli.
In test [9] the target is Mitogen-activated protein kinase 14 (Homo sapiens, UniProt Q16539). Set-up: species or system Escherichia coli.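 Further: inhibition of p38alpha enzyme activity in a biochemical kinase assay, with myelin basic protein serving as substrate; in other assays of this panel Not Active means under 50% inhibition at 10 µM.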
For the next test, the target named is Estrogen receptor beta (Homo sapiens, UniProt Q92731). The conditions noted are these: sf9. Further: in other assays of this panel Not Active means under 50% inhibition at 10 µM.
Sequence of Estrogen receptor beta (Q92731 whole entry): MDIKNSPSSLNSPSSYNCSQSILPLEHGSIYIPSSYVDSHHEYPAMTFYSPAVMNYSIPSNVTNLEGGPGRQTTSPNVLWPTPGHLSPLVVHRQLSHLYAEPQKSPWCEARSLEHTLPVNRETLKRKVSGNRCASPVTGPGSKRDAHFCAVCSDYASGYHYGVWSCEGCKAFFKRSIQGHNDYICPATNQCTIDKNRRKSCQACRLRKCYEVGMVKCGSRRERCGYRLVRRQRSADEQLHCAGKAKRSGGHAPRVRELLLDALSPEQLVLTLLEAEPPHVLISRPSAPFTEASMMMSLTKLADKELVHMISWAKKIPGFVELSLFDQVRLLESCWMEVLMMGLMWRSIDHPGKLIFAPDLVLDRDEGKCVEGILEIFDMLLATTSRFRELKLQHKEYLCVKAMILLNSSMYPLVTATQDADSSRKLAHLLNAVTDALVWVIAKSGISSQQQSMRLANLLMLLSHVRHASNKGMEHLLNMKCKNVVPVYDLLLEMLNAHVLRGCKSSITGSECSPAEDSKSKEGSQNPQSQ

Sequence of Delta-type opioid receptor (P41143 whole entry): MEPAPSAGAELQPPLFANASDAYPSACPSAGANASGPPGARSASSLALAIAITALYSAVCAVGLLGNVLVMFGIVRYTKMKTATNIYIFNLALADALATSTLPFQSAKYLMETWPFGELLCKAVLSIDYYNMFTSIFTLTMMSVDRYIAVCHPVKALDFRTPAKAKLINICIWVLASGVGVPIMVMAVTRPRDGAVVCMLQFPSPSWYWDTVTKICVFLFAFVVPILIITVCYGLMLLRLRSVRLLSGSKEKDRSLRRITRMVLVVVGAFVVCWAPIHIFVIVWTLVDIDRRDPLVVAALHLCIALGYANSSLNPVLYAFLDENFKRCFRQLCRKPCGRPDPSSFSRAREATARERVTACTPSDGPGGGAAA
Sequence of Mitogen-activated protein kinase 14 (Q16539 whole entry): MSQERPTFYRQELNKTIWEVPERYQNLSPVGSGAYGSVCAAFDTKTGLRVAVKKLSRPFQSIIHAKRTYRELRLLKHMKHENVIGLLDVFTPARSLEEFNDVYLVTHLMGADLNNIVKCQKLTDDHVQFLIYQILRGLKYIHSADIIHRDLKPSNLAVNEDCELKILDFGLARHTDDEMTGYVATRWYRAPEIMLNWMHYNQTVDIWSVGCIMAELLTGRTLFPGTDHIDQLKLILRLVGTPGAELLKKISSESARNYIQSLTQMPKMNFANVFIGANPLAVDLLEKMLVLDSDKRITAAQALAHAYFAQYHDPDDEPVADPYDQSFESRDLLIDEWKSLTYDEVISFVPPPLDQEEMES
Sequence of Kappa-type opioid receptor (P41145 whole entry): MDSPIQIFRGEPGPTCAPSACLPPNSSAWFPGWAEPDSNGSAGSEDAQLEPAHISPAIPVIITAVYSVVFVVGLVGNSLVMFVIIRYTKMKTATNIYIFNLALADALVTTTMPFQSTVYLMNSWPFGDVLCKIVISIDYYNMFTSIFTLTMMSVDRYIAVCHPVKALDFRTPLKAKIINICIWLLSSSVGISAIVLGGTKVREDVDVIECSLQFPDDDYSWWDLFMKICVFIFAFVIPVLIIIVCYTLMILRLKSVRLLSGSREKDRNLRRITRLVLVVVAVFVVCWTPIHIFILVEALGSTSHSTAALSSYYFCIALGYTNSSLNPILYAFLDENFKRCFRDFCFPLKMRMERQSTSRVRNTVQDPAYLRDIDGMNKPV
Sequence of C-C chemokine receptor type 2 (P41597 whole entry): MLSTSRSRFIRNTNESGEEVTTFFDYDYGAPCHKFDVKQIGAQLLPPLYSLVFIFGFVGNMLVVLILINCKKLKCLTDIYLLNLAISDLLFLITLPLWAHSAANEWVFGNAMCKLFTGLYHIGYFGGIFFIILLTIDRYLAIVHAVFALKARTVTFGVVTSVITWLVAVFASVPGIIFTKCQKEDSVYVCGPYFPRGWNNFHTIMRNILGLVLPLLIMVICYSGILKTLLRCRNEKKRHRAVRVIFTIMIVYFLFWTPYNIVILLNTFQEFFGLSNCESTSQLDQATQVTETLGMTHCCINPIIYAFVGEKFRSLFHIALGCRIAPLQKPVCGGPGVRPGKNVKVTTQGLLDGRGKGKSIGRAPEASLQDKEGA
Sequence of Mitogen-activated protein kinase 1 (P28482 whole entry): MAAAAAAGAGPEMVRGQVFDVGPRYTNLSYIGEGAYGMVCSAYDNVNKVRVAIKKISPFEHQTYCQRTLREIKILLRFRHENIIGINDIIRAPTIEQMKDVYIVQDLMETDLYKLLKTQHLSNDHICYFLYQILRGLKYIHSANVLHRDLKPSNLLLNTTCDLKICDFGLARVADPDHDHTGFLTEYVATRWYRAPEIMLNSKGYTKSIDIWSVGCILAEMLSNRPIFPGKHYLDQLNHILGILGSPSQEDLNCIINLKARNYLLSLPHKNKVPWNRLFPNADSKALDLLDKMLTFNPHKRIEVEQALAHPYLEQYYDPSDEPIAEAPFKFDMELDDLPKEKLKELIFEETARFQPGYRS

Consider `CC(=O)N[C@@H]1[C@H](Oc2c3cc4cc2Oc2ccc(cc2Cl)[C@@H](O[C@@H]2O[C@@H](CO)[C@@H](O)[C@H](O)[C@@H]2NC(C)=O)[C@@H]2NC(=O)[C@H](NC(=O)[C@@H]4NC(=O)[C@H]4NC(=O)[C@@H](Cc5ccc(c(Cl)c5)O3)NC(=O)[C@H](N)c3ccc(O)c(c3)Oc3cc(O)cc4c3)c3ccc(O)c(c3)-c3c(O[C@H]4O[C@H](CO)[C@@H](O)[C@@H](O)[C@@H]4O)cc(O)cc3[C@@H](C(=O)O)NC2=O)O[C@@H](CO)[C@@H](O)[C@@H]1O`, for which the IC50 result (in [1]; in test [2]; in [3]; against Glycine receptor; in test [4] (hek293); in test [5]) was “Not Active” in each case. Besides, the IC50 result (in test [6]; in [7]; in test [8]; in test [9]; against Estrogen receptor beta) was “Not Active” each time. Moreover, the Ki entry in test [1], in test [3] and in test [6] was “Not Active” throughout.
`CC(=O)N1CCN(c2ccc(OCC3COC(Cn4ccnc4)(c4ccc(Cl)cc4Cl)O3)cc2)CC1` (stereo not drawn) [KETOCONAZOLE]: the IC50 entry was “Not Active” in test [1]; “Not Active” in test [2]; “Not Active” in test [3]; “Not Active” on Glycine receptor; 12.8 µM in test [4] (read-out: IC50); “Not Active” in test [5]. Besides, the IC50 entry (in test [6]; in test [7]; in test [8]; in [9]; against Estrogen receptor beta) was “Not Active” each time. For the same compound, the inhibition constant Ki result was “Not Active” in [1], “Not Active” in [3], 4.51 µM in test [4] (read-out: Ki) and “Not Active” in test [6].
`COCCCOc1ccnc(C[S+]([O-])c2nc3ccccc3[nH]2)c1C` (stereo not drawn) [RABEPRAZOLE]: the IC50 result (in test [1]; in test [2]; in [3]; at Glycine receptor; in test [4] (hek293); in test [5]) was “Not Active” each time. Moreover, the IC50 entry (in test [6]; in test [7]; in test [8]; in [9]; at Estrogen receptor beta) was “Not Active” each time. Further, the Ki entry in [1], in [3] and in test [6] was “Not Active” throughout.
Turning to `CNC(=C[N+](=O)[O-])NCCSCc1ccc(CN(C)C)o1` [RANITIDINE], the IC50 entry (in test [1]; in [2]; in [3]; against Glycine receptor; in [4] (hek293); in [5]) was “Not Active” in each case. Also, the IC50 result (in test [6]; in [7]; in [8]; in [9]; at Estrogen receptor beta) was “Not Active” throughout. Further, the inhibition constant (Ki) entry in test [1], in test [3] and in test [6] was “Not Active” in each case.
For the compound `CO[C@H]1/C=C/O[C@@]2(C)Oc3c(C)c(O)c4c(c3C2=O)C2=NC3(CCN(CC(C)C)CC3)NC2=C(NC(=O)/C(C)=C\C=C\[C@H](C)[C@H](O)[C@@H](C)[C@@H](O)[C@@H](C)[C@H](OC(C)=O)[C@@H]1C)C4=O` [RIFABUTIN], the IC50 entry (in test [1]; in [2]; in test [3]; at Glycine receptor; in test [4] (hek293); in test [5]) was “Not Active” throughout. Also, the IC50 entry (in [6]; in test [7]; in test [8]; in test [9]; on Estrogen receptor beta) was “Not Active” each time. Moreover, the Ki entry in test [1], in test [3] and in [6] was “Not Active” each time.
As for `CC(C)CC(N(C)C)C1(c2ccc(Cl)cc2)CCC1` (stereo not drawn) [SIBUTRAMINE], the IC50 result (in [1]; in test [2]; in test [3]; at Glycine receptor; in [4] (hek293); in [5]) was “Not Active” in each case. Further, the IC50 entry (in test [6]; in test [7]; in test [8]; in [9]; on Estrogen receptor beta) was “Not Active” throughout. In addition, the Ki result in test [1], in test [3] and in [6] was “Not Active” in each case.
As for `[H]/N=C(/N)N[C@H]1[C@H](O)[C@@H](O)[C@H](O[C@@H]2O[C@@H](C)[C@](O)(C=O)[C@H]2O[C@@H]2O[C@@H](CO)[C@H](O)[C@@H](O)[C@@H]2NC)[C@@H](N/C(N)=N\[H])[C@@H]1O` [STREPTOMYCIN], the IC50 entry (in [1]; in test [2]; in test [3]; against Glycine receptor; in [4] (hek293); in [5]) was “Not Active” throughout. Further, the IC50 entry (in test [6]; in test [7]; in test [8]; in test [9]; against Estrogen receptor beta) was “Not Active” throughout. Further, the Ki entry in test [1], in test [3] and in [6] was “Not Active” in each case.
As for `COc1cc(NS(=O)(=O)c2ccc(N)cc2)nc(OC)n1` [SULFADIMETHOXINE], the IC50 entry (in [1]; in test [2]; in [3]; against Glycine receptor; in [4] (hek293); in test [5]) was “Not Active” each time. Besides, the IC50 entry (in test [6]; in test [7]; in test [8]; in test [9]; against Estrogen receptor beta) was “Not Active” in each case. In addition, the Ki result in [1], in test [3] and in [6] was “Not Active” in each case.
In the case of `CN1C(C(=O)Nc2ccccn2)=C(O)c2sccc2S1(=O)=O` [TENOXICAM], the IC50 entry (in test [1]; in test [2]; in test [3]; on Glycine receptor; in test [4] (hek293); in [5]) was “Not Active” in each case. The 50% inhibitory concentration (IC50) entry (in test [6]; in test [7]; in test [8]; in [9]; on Estrogen receptor beta) was “Not Active” in each case. For the same compound, the Ki entry in [1], in [3] and in test [6] was “Not Active” in each case.
Take `CC(C)(C)c1ccc(C(O)CCCN2CCC(C(O)(c3ccccc3)c3ccccc3)CC2)cc1` (stereo not drawn) [TERFENADINE]: the IC50 entry (in test [1]; in test [2]; in test [3]; at Glycine receptor; in test [4] (hek293); in test [5]) was “Not Active” throughout. Further, the IC50 result (in [6]; in [7]; in [8]; in test [9]; at Estrogen receptor beta) was “Not Active” throughout. In addition, the Ki result in [1], in test [3] and in test [6] was “Not Active” in each case.
For `O=C1CCC(N2C(=O)c3ccccc3C2=O)C(=O)N1` (stereo not drawn) [THALIDOMIDE], the IC50 result (in test [1]; in test [2]; in [3]; on Glycine receptor; in [4] (hek293); in test [5]) was “Not Active” throughout. The IC50 entry (in test [6]; in test [7]; in test [8]; in test [9]; on Estrogen receptor beta) was “Not Active” throughout. In addition, the Ki entry in [1], in test [3] and in test [6] was “Not Active” throughout.
As to `Cc1cccc(Nc2ccncc2S(=O)(=O)NC(=O)NC(C)C)c1` [TORSEMIDE], the IC50 result (in test [1]; in [2]; in test [3]; against Glycine receptor; in [4] (hek293); in test [5]) was “Not Active” in each case. In addition, the IC50 result (in test [6]; in test [7]; in test [8]; in [9]; against Estrogen receptor beta) was “Not Active” throughout. Moreover, the Ki entry in test [1], in test [3] and in [6] was “Not Active” in each case.
In the case of `CC(C)C[C@H](NC(=O)[C@@H](O)[C@H](N)Cc1ccccc1)C(=O)O` [UBENIMEX], the half-maximal inhibitory concentration (IC50) entry (in [1]; in test [2]; in test [3]; at Glycine receptor; in test [4] (hek293); in test [5]) was “Not Active” throughout. In addition, the IC50 result (in test [6]; in test [7]; in test [8]; in [9]; on Estrogen receptor beta) was “Not Active” in each case. Besides, the Ki entry in [1], in [3] and in test [6] was “Not Active” throughout.
